Results on 6 compounds are retold here after ChEMBL document CHEMBL3046305, “Insecticidal and repellent action of allyl esters against Acyrthosiphon pisum (Hemiptera: Aphididae) and Tribolium castaneum (Coleoptera: Tenebrionidae)” (2013).

For test [1], the system named is Tribolium castaneum. Put plainly: Insecticidal activity against Tribolium castaneum (red flour beetle) assessed as mortality treated topically measured per insect after 24 hr. The format is functional.
Test [2] deals with Acyrthosiphon pisum. Put plainly: Insecticidal activity against Acyrthosiphon pisum (pea aphid) treated artificial diet with compound assessed as mortality at 0.7 mg/ml after 3 days. The format is functional. Particulars: 72 h.
Test [3] relates to Acyrthosiphon pisum. Put plainly: Insecticidal activity against Acyrthosiphon pisum (pea aphid) treated artificial diet with compound assessed as mortality at 0.1 mg/ml after 1 day. The format is functional, organism-based.
For test [4], the system named is Acyrthosiphon pisum. Put plainly: Repellent effect in Acyrthosiphon pisum (pea aphid) at 0.1 ug/cm'2. It counts as functional, organism-based.
For test [5], the system named is Tribolium castaneum. Put plainly: Insecticidal activity against Tribolium castaneum (red flour beetle) Herbst assessed as mortality treated topically at 0.24 mg/insect measured per insect after 24 hr. The format is functional.
The test system of test [6] is Acyrthosiphon pisum. Put plainly: Insecticidal activity against Acyrthosiphon pisum (pea aphid) assessed as mortality treated topically at 30 ug/insect measured after 24 hr. It counts as functional.
For test [7], the system named is Acyrthosiphon pisum. Put plainly: Insecticidal activity against Acyrthosiphon pisum (pea aphid) treated artificial diet with compound for 3 days assessed as mortality. It counts as functional. Particulars: for LC50: Acyrthosiphon pisum, 72 h.
The test system of test [8] is Acyrthosiphon pisum. Put plainly: Insecticidal activity against Acyrthosiphon pisum (pea aphid) treated artificial diet with compound assessed as mortality at 0.7 mg/ml after 1 day. The format is functional. Particulars: 24 h.
Test [9] concerns Tribolium castaneum. Put plainly: Repellent effect in Tribolium castaneum (red flour beetle) at 10 ug/cm'2 measured after 24 hr. It counts as functional.
Test [10] has as its system Tribolium castaneum. Put plainly: Repellent effect in Tribolium castaneum (red flour beetle) at 10 ug/cm'2 measured after 4 hr. It counts as functional.
Test [11] relates to Acyrthosiphon pisum. Put plainly: Repellent effect in Acyrthosiphon pisum (pea aphid) at 10 ug/cm'2. It counts as functional.
The test system of test [12] is Tribolium castaneum. Put plainly: Insecticidal activity against Tribolium castaneum (red flour beetle) assessed as mortality at 0.25 mg/insect. It counts as functional.
Test [13] deals with Tribolium castaneum. Put plainly: Repellent effect in Tribolium castaneum (red flour beetle) at 0.1 ug/cm'2 measured after 8 hr. The format is functional, organism-based.

Values after ≈ are worked out from the molar mass of the structure shown. Active and inactive are the calls of the source. The calls are words filed in the database; no cut-off is given here.

In the case of `C=CCOC(=O)c1ccco1` [ALLYL 2-FUROATE], the LC50 in test [1] is 0.2 mg; in test [7], 210 µg/mL (≈ 1380 µM). In addition, the values for the LC90 in test [1] and in test [7] were 0.46 mg and 2900 µg/mL (≈ 19100 µM), respectively. In addition, the values for the mortality at 700 µg/mL in test [2] and in [8] were 68% and 52%, respectively. The mortality result in test [3] and in [6] was “inactive” each time. In addition, the result in [4] was inactive. The mortality in test [5] amounted to 45%.
For the compound `CCN(CC)C(=O)c1cccc(C)c1` [DIETHYLTOLUAMIDE], the Repellency in test [9] was 84%; in test [10] it was 60%; in [11] it was 50%.
Regarding `C=CCOC(=O)CCCCC` [ALLYL HEXANOATE], the LC90 in test [1] worked out at 0.3 mg. Besides, the mortality result in [3] and in [6] was “inactive” each time. Further, the outcome in [4] and in test [10] was inactive. In addition, the mortality in [5] came out at 45%.
`C=CCOC(=O)CCCCCCC` [ALLYL OCTANOATE]: in test [1], the LC50 amounted to 0.1 mg and the LC90 came out at 0.16 mg. Further, in test [3], the mortality entry was “inactive”. Besides, the result in test [4] was inactive. Further, the mortality in test [5] is reported as 45%. In test [6], the mortality entry is “inactive”.
As to `C=CCOC(=O)/C=C/c1ccccc1` [ALLYL CINNAMATE], the results for the LC50 in test [1] and in [7] were 0.2 mg and 30 µg/mL (≈ 159 µM), respectively. Also, the LC90 was determined as 0.28 mg in test [1] and 180 µg/mL (≈ 956 µM) in [7]. Besides, the mortality at 700 µg/mL was 100% in test [2] and 86% in test [8]. For the same compound, the mortality entry in test [3] is “inactive”. The Repellency in test [10] turned out to be 80%; in test [11] it was 34%. The LT50 in test [12] is under 2 h. In addition, the mortality amounted to 45% in test [5] and 75% in [6]. The outcome in test [13] was Active.
Take `C=CCOC(=O)CCCCCC` [ALLYL HEPTANOATE]: the figures for the LC90 in [1] and in test [7] were 0.32 mg and 1160 µg/mL (≈ 6810 µM), respectively. For the same compound, the mortality at 700 µg/mL in test [2] turned out to be 72%; in [8], 53%. Also, the mortality entry in [3] and in test [6] was “inactive” throughout. Besides, the result in test [4] was inactive. Also, the LT50 in [12] is under 2 h. In addition, in test [5], the mortality came out at 45%.
